Assays:
[1] = tested on: tumour cells (at least 4 of a panel of ovarian, breast, lung, pancreatic, placenta, colon cell lines); experiment: In vitro cytotoxicity (cell proliferation, CellTiter-Glo), average over tumour cell line panel; assay type: cell-based; details: average pIC50 on all cell lines tested; 5 nights incubation; CellTiter-Glo
Description: The ability of representative compounds of Formula I to inhibit proliferation of tumour cells in vitro was evaluated in at least 4 of the following cell lines: OVCAR-3 (ovarian, ATCC), SKOV-3 (ovarian, ATCC), IGROV-1 (ovarian, national research council of Canada (NRC)), OV-90 (ovarian, ATCC), OVKATE (Ovarian, Japanese Collection of Research Bioresources (JCRB) (JCRB1044)), JIMT-1 (breast, NRC), SK-BR-3 (breast, ATCC), T-47D (breast, ATCC), ZR-75-1 (breast, ATCC), MDA-MB-468 (breast, AddexBio), BT-20 (breast, ATCC), BT-474 (breast, NRC), MDA-MB-175 (breast, AddexBio), A549 (lung, collaborator), NCI-H226 (lung, NRC), NCI-H661 (lung, NRC), NCI-H1573 (lung, ATCC). NCI-H1563 (lung, ATCC), H358 (lung, collaborator), EBC-1 (lung, Xenotech), H1299 (lung, NRC), NCI-H292 (lung, ATCC), HCC817 (lung, ATCC), NCI-H441 (lung, ATCC), MIA-PaCa-2 (pancreatic, ATCC), BxPC-3 (pancreatic, ATCC), Panc-1 (pancreatic, ATCC), AsPC-1 (pancreatic, ATCC), JEG-3 (placenta, AddexBio), HT-29 (colon, ATCC).
Cells were cultured per vendor instructions and in log-phase growth were detached by brief incubation in 0.05% trypsin, then resuspended in respective culturing media at 20,000 cells/mL (except for ZR-75 cells, which were resuspended at 10,000 cells/mL). 50 μL/well (˜1000 cells/well) were transferred to sterile tissue culture (TC)-treated 384-well plates (ThermoFisher Scientific, Catalogue #164610) and incubated overnight at 37° C. with 5% CO2 to allow the cells to adhere to the plate surface. The next day, in a sterile, V-bottom, 96-well plate, test articles were titrated 1:3 in complete growth medium, creating a 10-point dose response titration with compounds at 3.5-times the desired final concentration. 20 μL from each dilution were added to the 384-well plate containing the seeded cells and these plates were incubated at 37° C. with 5% CO2 for 5 nights. Cell viability was quantified by first incubating with 15 μL/well of CellTiter-Glo® (Promega, Catalogue #G7572) for 30 minutes, then measuring luminescence with a microplate luminometer (BioTek® Synergy™ H1 Microplate Reader). IC50 values were determined by GraphPad Prism (GraphPad Software, San Diego, CA).
The results are presented in Table 7.1 and discussed in Example 7. Table 7.1 presents the results as average pIC50 values. pIC50=−log (IC50), thus, for example, pIC50=9 is equivalent to IC50=1 nM, and pIC50=6 is equivalent to IC50=1 μM.

[2] = Lipophilicity by experimental HPLC retention time; assay type: physicochemical; details: HPLC retention time as measure of lipophilicity; C18, 10 to 90% CH3CN/H2O with 0.1% FA over 25 min
Description: The ability to kill neighboring cells (i.e. bystander effect) is an important property for ADC payloads. For a payload comprising a compound of Formula I to be capable of bystander killing, membrane permeability (or transport) is required and the ability of compounds of Formula I to cross cell membranes and exert a cytotoxic effect was expected to be heavily influenced by lipophilicity.
Compounds were analyzed using an Agilent 1260 HPLC (Agilent Technologies, Inc., Santa Clara, CA) equipped with a Diode array detector and using a Phenomenex Kinetex EVO C18 150×4.6, 2.6 μm column (Phenomenex, Torrance, CA), eluting with 10 to 90% CH3CN/H2O with 0.1% FA over 25 min.

herring sperm DNA = experiment: DNA melting temperature by differential scanning calorimetry (DSC); assay type: binding; details: for DNA melt (° C.): DSC, herring sperm DNA, DNA melting temperature = 68° C.
Description: Representative compounds prepared as described in Example 2 were assessed in two complementary DNA-binding assays. Increased melting temperature of herring sperm DNA was measured using differential scanning calorimetry (DSC) and binding kinetics were determined by surface plasmon resonance (SPR) using a short DNA hairpin sequence.
DSC experiments were conducted as described in Leng, 2003, Nucleic Acids Res., 31 (21): […], using a Nano DSC (TA Instruments, New Castle, DE) and analyzed using the NanoAnalyze™ software package. Herring sperm DNA solution (Invitrogen 15634017, 10 mg/mL) was diluted to 1 mg/mL (1.4 mM base pair) in BPE buffer (6 mM Na2HPO4, 2 mM NaH2PO4, 1 mM Na4EDTA, pH 7.0). Test articles (20 μL, 10 mM in DMSO) were added and allowed reach equilibrium binding (>3 h), any insoluble material was removed by low-speed centrifugation, then samples were heated from 25 to 110° C. at a scan rate of 1° C./min. Melting curves were plotted and melting temperature was determined using NanoAnalyze™.

[3] = amide bond; 32-membered ring

| Compound | pIC50 (average) [1] | HPLC [2] | DNA melt (° C.) (herring sperm DNA) | DNA binding (in words) (herring sperm DNA; only DSC data in Table 7.1) | ring closure, isolated yield [3] |
| --- | --- | --- | --- | --- | --- |
| CN1CC(=O)N2CCCC[C@H]2COC[C@@H](NC(=O)c2nc3ccccc3cc2O)C(=O)N2CCCC[C@H]2C(=O)NCC(=O)N(C)CC(=O)N2CCCC[C@H]2C(=O)NC[C@@H](NC(=O)c2nc3ccccc3cc2O)C(=O)N2CCCC[C@H]2C(=O)NCC1=O [Compound 187, N,N′-((7R,10aS,22aS,29R,32aS,44aS)-18,40-dimethyl-6,16,19,22,28,32,38,41,44-nonaoxodotetracontahydro-6H-tetrapyrido[2,1-b1: 2′,1′-c: 2″,1″-1:2′″,1′″-s][1]oxa[4,7,10,13,17,20,23,26,29]nonaazacyclodotriacontine-7,29-diyl)bis(3-hydroxyquinoline-2-carboxamide)] | 8.0 | 16.6 min | 94 °C |  |  |
| CC(C)[C@H]1COC[C@@H](NC(=O)c2nc3ccccc3cc2O)C(=O)N2CCCC[C@H]2C(=O)NCC(=O)N(C)CC(=O)N(C)[C@@H](C(C)C)C(=O)OC[C@@H](NC(=O)c2nc3ccccc3cc2O)C(=O)N2CCCC[C@H]2C(=O)NCC(=O)N(C)CC(=O)N1C [Compound 203, N,N′-((7R,11S,19aS,26R,30S,38aS)-11,30-diisopropyl-12,15,31,34-tetramethyl-6,10,13,16,19,25,32,35,38-nonaoxodotriacontahydro-2H,6H,10H,25H-dipyrido[2,1-b1: 2′,1′-1][1,17]dioxa[4,7,10,13,20,23,26,29]octaazacyclodotriacontine-7,26-diyl)bis(3-hydroxyquinoline-2-carboxamide)] | 8.5 | 20.2 min | 96 °C |  |  |
| CC(C)[C@H]1C(=O)O[C@H](C)[C@@H](NC(=O)c2nc3ccccc3cc2O)C(=O)N2CCCC[C@H]2C(=O)NCC(=O)N(C)CC(=O)N(C)[C@@H](C(C)C)C(=O)O[C@H](C)[C@@H](NC(=O)c2nc3ccccc3cc2O)C(=O)N2CCCC[C@H]2C(=O)NCC(=O)N(C)CC(=O)N1C [Compound 22, N,N′-((7R,8R,11S,19aS,26R,27R,30S,38aS)-11,30-diisopropyl-8,12,15,27,31,34-hexamethyl-6,10,13,16,19,25,29,32,35,38-decaoxodotriacontahydro-2H,6H,10H,25H-dipyrido[2,1-b1: 2′,1′-l][1,17]dioxa[4,7,10,13,20,23,26,29]octaazacyclodotriacontine-7,26-diyl)bis(3-hydroxyquinoline-2-carboxamide)] | 7.6 | 21.6 min | 85 °C |  |  |
| O=C(N[C@@H]1CNC(=O)[C@@H]2CCCCN2C(=O)COCCNC(=O)[C@@H]2CCCCN2C(=O)[C@H](NC(=O)c2nc3ccccc3cc2O)CNC(=O)[C@@H]2CCCCN2C(=O)COCCNC(=O)[C@@H]2CCCCN2C1=O)c1nc2ccccc2cc1O [Compound 409, N,N′-((7R,10aS,22aS,29R,32aS,44aS)-6,10,16,22,28,32,38,44-octaoxotetracontahydro-2H,19H-tetrapyrido[1,2-a1: 1′,2′-d: 1″,2″-k: 1′″,2′″-t][1,17]dioxa[4,7,11,14,20,23,27,30]octaazacyclodotriacontine-7,29-diyl)bis(3-hydroxyquinoline-2-carboxamide)] | inactive | 16.1 min | 68^1 °C | did not demonstrate measurable DNA binding |  |
| CC(C)[C@H]1C(=O)NC[C@@H](NC(=O)c2nc3ccccc3cc2O)C(=O)N2CCCC[C@H]2C(=O)NCC(=O)N(C)CC(=O)N2CCCCC[C@H]2C(=O)NC[C@@H](NC(=O)c2nc3ccccc3cc2O)C(=O)N2CCCC[C@H]2C(=O)NCC(=O)N(C)CC(=O)N1C [Compound 88, N,N′-((5aS,9R,15aS,24S,28R,34aS)-24-isopropyl-20,23,39-trimethyl-6,10,16,19,22,25,29,35,38,41-decaoxotetracontahydro-1H,12H-azepino[1,2-j]dipyrido[1,2-a:1′,2′-q][1,4,7,10,13,17,20,23,26,29]decaazacyclodotriacontine-9,28-diyl)bis(3-hydroxyquinoline-2-carboxamide)] | 8.5 | 16.4 min | 88 °C |  |  |
| Benzyl tert-butyl ((3aS,7R,13aS,22S,26R,32aS)-22-isopropyl-18,21,37-trimethyl-4,8,14,17,20,23,27,33,36,39-decaoxooctatriacontahydro-1H,10H-dipyrido[1,2-a:1′,2′-q]pyrrolo[1,2-j][1,4,7,10,13,17,20,23,26,29]decaazacyclodotriacontine-7,26-diyl)dicarbamate |  |  |  |  | 62% |
| Benzyl tert-butyl ((7R,10aS,23aS,30R,33aS,46aS)-19,42-dimethyl-6,10,17,20,23,29,33,40,43,46-decaoxotetratetracontahydro-6H,29H-bis(azepino)[1,2-j:1′,2′-z]dipyrido[1,2-a:1′,2′-q][1,4,7,10,13,17,20,23,26,29]decaazacyclodotriacontine-7,30-diyl)dicarbamate |  |  |  |  | 74% |
| Benzyl tert-butyl ((7R,11S,19aS,26R,30S,38aS)-12,31-diethyl-11,30-diisopropyl-15,34-dimethyl-6,10,13,16,19,25,29,32,35,38-decaoxohexatriacontahydro-2H,6H-dipyrido[1,2-a:1′,2′-q][1,4,7,10,13,17,20,23,26,29]decaazacyclodotriacontine-7,26-diyl)dicarbamate |  |  |  |  | 40% |
| Tert-butyl (4-nitrobenzyl) ((7R,11S,19aS,26R,30S,38aS)-11,30-diisopropyl-12,15,31,34-tetramethyl-6,10,13,16,19,25,32,35,38-nonaoxodotriacontahydro-2H,6H,10H,25H-dipyrido[2,1-b1: 2′,1′-l][1,17]dioxa[4,7,10,13,20,23,26,29]octaazacyclodotriacontine-7,26-diyl)dicarbamate |  |  |  |  | 50% |
| Benzyl tert-butyl ((7′R,19a'S,26′R,30'S,38a'S)-30′-isopropyl-12′,15′,31′,34′-tetramethyl-6′,10′,13′,16′,19′,25′,29′,32′,35′,38′-decaoxotetratriacontahydro-2′H,6′H,12′H-spiro[cyclobutane-1,11′-dipyrido[1,2-a:1′,2′-q][1,4,7,10,13,17,20,23,26,29]decaazacyclodotriacontine]-7′,26′-diyl)dicarbamate |  |  |  |  | 43% |
